According to a melting point compilation (Tetko et al.; mined from patent text by program, amines drawn as free bases though some values may be those of a salt):

Row | SMILES | melting point
1 | CCCc1nc2c(N)nc3ccccc3c2n1CCC1(O)CCOCC1 | 181 to 183 °C
2 | C/C=C/c1cc2c(s1)[C@@H](OC(C)=O)[C@H](OC(C)=O)C[C@]2(OC(C)=O)C(=O)OC | 140 to 143 °C
3 | CC(C)(C)c1csc(N)c1C(N)=O | 145 °C
4 | O=C(O)CCNC(=O)C(CS)C(F)(F)F (centres undefined) | 108 to 110 °C
5 | Cc1cccc2cc(C3CCN(C)CC3)[nH]c(=O)c12 | 200 to 202 °C
6 | CNC(=O)C(C)Oc1ncn(-c2ccc(Br)cc2)n1 (centres undefined) | 176 to 178 °C
7 | COc1ccc(-c2nc(CCCCCc3nnn[nH]3)oc2-c2ccc(OC)cc2)cc1 | 150 °C
8 | Nc1c(Cl)cccc1CO | 56 to 68 °C
9 | CCOC(=O)C(C#N)=Cc1cc(OC)c(OC)c2c1C=CCO2 | 104 to 108 °C
10 | S=c1[nH]ccn1C1CCc2ccccc21 (centres undefined) | 136 to 137 °C
11 | CCCCCCNC(=O)[C@@H]1CCC(=O)N1 | 95 °C
12 | O=C1Nc2cc(F)ccc2C12COc1cc3c(cc12)CCO3 (centres undefined) | 249 to 251 °C
13 | CCOC(=O)C(=Cc1ccccc1)c1csc(N)n1 | 162 °C
14 | COCCCN1CCC(CNC(=O)c2cc(Cl)c(N)nc2OC)CC1 | 103 °C
15 | CCOC(=O)c1c[nH]c2c(=O)ccc(Cl)cc2c1=O | 138 to 140 °C
16 | O=C1C[C@H](O)[C@H](CC2CCCCC2)N1 | 141 to 143 °C
17 | CCCC1=C([N+](=O)[O-])C(c2ccccc2[N+](=O)[O-])c2c[nH]nc2N1 (centres undefined) | 204 °C
18 | CCCCc1nnc2c(Cl)nc3ccccc3n12 | 144 to 146 °C
19 | COC(=O)C1=C(C)NC(C)=C(C(=O)N2CCC3(CC2)CC(=O)N(OC)C3=O)C1c1cccc([N+](=O)[O-])c1 (centres undefined) | 228 to 230 °C
20 | COC(=O)COc1ccc(OCCC2CCN(c3ccncc3)CC2)cc1 | 86 to 88 °C
21 | Cc1ccc(S(=O)(=O)N(C)SN(c2cc(C(F)(F)F)ccc2Cl)c2c([N+](=O)[O-])cc([N+](=O)[O-])cc2C(F)(F)F)cc1 | 142 to 144 °C
22 | CNc1nc(C#N)c(C#N)nc1NC(C)(C)C | > 250 °C
23 | O=Cc1ccc(-c2ccccc2-c2nnn(C(c3ccccc3)(c3ccccc3)c3ccccc3)n2)cc1 | 147 to 149 °C

Row | SMILES | melting point
24 | CCCCn1c(CCCCN(C(N)=O)c2ccccc2)nc2c(N)nc3ccccc3c21 | 222 to 225 °C
25 | COc1cc(OC)c2c(=O)c3c(Cl)ccc([N+](=O)[O-])c3[nH]c2c1 | 291 to 294 °C
26 | O=C(CCc1cccc(Br)c1)c1cnc2sc3c(n12)CCCCC3 | 77 to 79 °C
27 | CC(CCCCc1ccccc1)c1cc(O)c2c(c1)OC(C)(C)C1CCC(=O)C=C21 (centres undefined) | 204 to 208 °C
28 | CC(C)c1[nH]nc2c1C(=O)c1c(NC(=O)CN3CCC(C(N)=O)CC3)cccc1-2 | 224 to 225 °C
29 | O=C(NCC1CCCCC1)c1c(Cl)ccc2nc(N3CCC(c4nnn[nH]4)CC3)ccc12 | 252 to 255 °C
30 | Nc1ccc(C(=O)NCC(=O)O)c(F)c1 | 190 to 194 °C
31 | COC(=O)C1=C(CO)NC(C)=C(C(=O)OC(C)C)C1c1ccccc1[N+](=O)[O-] (centres undefined) | 135 to 137 °C
32 | Cc1cc(C)c(CS(=O)c2ccccc2)c(-c2ccc(F)c(C)c2)c1 (centres undefined) | 75 to 85 °C
33 | CN(C(=O)OC(C)(C)C)c1sc(-c2cccnc2)nc1Cl | 119 to 122 °C
34 | CC(=O)NCc1ccc2c(c1)N(C1CCN(CCc3ccc(F)cc3)CC1)CC2 | 160 to 162 °C
35 | CCC(=O)NCCSC(=O)CC | 48 to 49 °C
36 | CCCCOc1cc(F)ccc1[N+](=O)[O-] | 75 to 76 °C
37 | CN(C)c1ccc(N(c2ccc(N(C)C)cc2)C2(c3ccc(N(C)C)cc3)OC(=O)c3cc(N(C)C)ccc32)cc1 (centres undefined) | 86 to 92 °C
38 | CN(CC(=O)O)S(=O)(=O)c1ccc(Cl)cc1 | 180 to 182 °C
39 | CSc1nc(CC2CCN(c3ccc(C(C)(C)C)cc3)CC2)nc(C(=O)NCC(=O)O)c1O | 135 to 136 °C
40 | CC1(C)C2CC[C@]1(C)C(=O)C(C(=O)Nc1cc(Cl)cc(Cl)c1)C2=O (some centres undefined) | 112 to 114 °C
41 | Nc1ccc2ncc(Br)cc2c1 | 151 to 152 °C
42 | O=C(O)CNC(=O)NC(CS)Cc1ccccc1 (single isomer, unassigned; (+)) | 110 °C
43 | CC(CCC(O)C(C)(C)O)C1CCC2C3CC=C4CC(O)CCC4(C)C3CCC12C (centres undefined) | 195 to 199 °C
44 | CC(C)CCCC(C)C1CC(O)C2=C3C(O)CC4CC(OC(=O)c5ccccc5)CCC4(C)C3CCC21C (centres undefined) | 178 to 179 °C
45 | O=C(O)COc1cccc2c1CCc1sc(S(=O)(=O)CCC(c3ccccc3)c3ccccc3)nc1-2 | 175 to 176 °C
46 | CC(=O)S[C@@H]1CCO[C@@H](c2ccccc2)O1 (relative stereo) | 95 to 96 °C

Row | SMILES | melting point
47 | O=S(=O)(F)c1cc(Cl)c(Cl)cc1Cl | 80 to 83 °C
48 | Cc1cc2ncccn2n1 | 54 to 57 °C
49 | COc1cc(C(=O)c2ccc(C(F)(F)F)cc2)cc(C#N)c1OC | 130 °C
50 | CSC1C(OC(C)=O)C(COC(C)=O)OC1n1ccc(=O)[nH]c1=O (centres undefined) | 132 °C
51 | O=P(O)(O)C1CC(c2ccc(F)cc2)=NO1 (centres undefined) | 206 °C
52 | Cc1ccc(CC2(O)CCN(CC3Cc4cc(O)ccc4N3)CC2)cc1 (racemic) | 90 to 94 °C
53 | ClCCCCOc1ccc2ccccc2c1 | 112 °C
54 | C=CCOc1cccc2c1C(=O)N(C(C)(C#N)C(C)C)C2=O (centres undefined) | 54 to 58 °C
55 | CCCCOc1c(CNC(=O)OC(C)(C)C)n(CC(C)(C)C)c(=O)c2ccc(CO)cc12 | 92 to 93 °C
56 | C=CCn1c(C)c(C)c2cnnc(SCc3ccc(Cl)cc3)c21 | 107 to 108 °C
57 | Cn1ccc2c3c(c(C(=O)O)cc21)C(=O)NC3=O | 313 to 318 °C
58 | O=c1c2c([nH]n1-c1ccccc1)CCCC2 | 178 to 181 °C
59 | O=S(=O)(NCCO)c1cccc(-c2cccc(-c3nc(-c4ccc(C(F)(F)F)cc4)cc(C(F)(F)F)n3)c2)c1 | 153 °C
60 | COCOc1c(OC)cc(C(S)CS)cc1OC (centres undefined) | 84 to 85 °C
61 | COc1ccc(CC(=O)Cc2ccc(OC)cc2)cc1 | 75 to 76 °C
62 | COc1nc(OC)nc(N(C)C(=O)Oc2ccccc2)n1 | 90 °C
63 | NS(=O)(=O)c1cc(C(=O)O)cc([N+](=O)[O-])c1Nc1cccc(C(F)(F)F)c1 | 213 to 215 °C
64 | NC(=O)CNC(=O)c1cccc(-c2cccc3cc(Cc4cccc(C(F)(F)F)c4)sc23)c1F | 135 to 136 °C
65 | O=[N+]([O-])c1ccc2oc(-c3ccc(Cl)cc3)nc2c1 | 217 to 218 °C
66 | CCCCCCCCCCc1cc2c(s1)NC(=O)CN=C2c1ccccc1C | 100 to 102 °C
67 | C[C@@H]1[C@@H](S(=O)(=O)c2ccccc2)[C@@H]2O[C@@H]2C[C@@H]1O | 148 °C

Other lines, results leading:

Row | melting point | SMILES
68 | 95 to 98 °C | COc1cc(NC(=O)N(CCCCCC(=O)O)c2ccccc2)c(O)c(C(C)(C)C)c1
69 | 185 to 186 °C | O=C(Nc1ccc([N+](=O)[O-])cc1)N[C@H]1C[C@H](C(=O)O)Nc2cc(Cl)cc(Cl)c21 (relative stereo)
70 | 118 to 120 °C | CC1(CNC(=O)OCc2ccccc2)CCCCn2c1nc(-c1ccncn1)cc2=O (racemic)
71 | 97 to 102 °C | COC(=O)C1CC(=O)N(Cc2ccccc2)C1c1c(Cl)cccc1Cl (centres undefined)
72 | 176 to 179 °C | CCc1c(CC(N)=O)c2cc(OCCCC(N)=O)ccc2n1Cc1ccccc1
73 | 150 °C | CC(C)Cn1c(=O)n(C)c(=O)c2cc(C(=O)c3cccc4ccccc34)sc21
74 | 256 to 257 °C | O=C1Cc2c(cc3ccccc3c2Br)C(c2ccccc2Cl)N1 (centres undefined)
75 | 107 to 108 °C | O=C(N[C@H]1CCN(CCc2ccc(F)cc2)C1)n1c2ccccc2c2ccccc21
76 | 210 to 213 °C | O=c1c(-c2ccccc2)c[nH]n1-c1cccc(C(F)(F)F)c1
77 | 111 to 112 °C | CC(C)(C)COS(=O)(=O)c1ccc(Oc2c(Cl)cccc2[N+](=O)[O-])cc1
78 | 217 to 218 °C | Cn1nc(-c2ccccc2)c2cccc(NS(C)(=O)=O)c2c1=O
79 | 73 to 75 °C | COCC(=O)O[C@@H]1[C@@H](c2ccccc2)Nc2c(ccn3c(C)c(C)nc23)[C@@H]1OC
80 | 196 to 197 °C | CC(C)(C)OC(=O)c1nc(-c2ccccc2)[nH]c1-c1cccnc1
81 | 154 °C | COc1ccc(C(O)(CN2CCNC2=O)c2ccccc2)cc1OC (centres undefined)
82 | 111 to 112 °C | COc1cccc2c(Nc3ccccc3C)nccc12
83 | 121 to 122 °C | CC(=O)Cc1ccc(OCC(O)CN2CCN(c3ccccc3)CC2)cc1 (centres undefined)

Row | melting point | SMILES
84 | 170 °C | O=CN1CCN(C(=O)COc2cc(-c3ccccc3)nc3ccccc23)CC1
85 | 142 to 143 °C | CS(=O)(=O)c1ccc(Oc2ccc([N+](=O)[O-])c(OCc3ccccc3)c2)cc1
86 | 254 to 256 °C | COc1cc(C(=O)O)ccc1Cn1ncc2ccc(NC(=O)CC3CCCC3)cc21
87 | 200 to 202 °C | O=C(CCCc1ccccc1)c1c(O)c2cccnc2n(-c2ccccc2)c1=O
88 | 118 to 119 °C | CC(=O)Nc1cccc(OCc2ccccc2)c1CCOC(C)=O
89 | 112 to 116 °C | CC(C)(F)[C@H]1C(=O)N[C@@H]1CC(=O)OCc1ccccc1 (racemic)
90 | 101 to 112 °C | CN(CCC(Oc1ccc(C(=O)c2cc3ccccc3s2)cc1)c1ccc(Cl)cc1)CC(=O)O (centres undefined)
91 | 103 to 106 °C | COc1ccc(C[C@H](N[C@@H](Cc2ccccc2)C(=O)O)C(=O)NCCc2ocnc2C(=O)O)cc1
92 | 183 °C | Cc1oc2ccccc2c1C(=O)c1ccc(Cl)c(S(N)(=O)=O)c1
93 | 113 to 114 °C | CCn1cc(-c2cccc(Cl)c2)c(=O)n1-c1cccc(C(F)(F)F)c1
94 | 62 to 64 °C | CC(C)CC(=O)c1cc(-c2ccccc2)no1
95 | 121 to 123 °C | O=c1c2cc(Cl)ccc2nc2n1CCCC2=Cc1ccccc1
96 | 122 to 123 °C | Clc1cccc(-n2c(/C=C/c3ccccc3)nc3ccccc32)n1
97 | 135 to 136 °C | O=c1cc(-c2ccccc2)oc2ccc(OCCCCCCCN3CCC(O)CC3)cc12
98 | 132 to 133 °C | CN1c2ccccc2C(c2ccccc2Cl)=Nc2cccnc21
99 | 196 °C | CN1C(=O)c2cnc(-c3ccccc3)nc2N(C(=O)CN2CCCC2)c2ccccc21
